Results on 7 molecules are retold here after article PMC10547880, “Synthesis and biological evaluation of novel 1,2,3-triazole hybrids of cabotegravir: identification of potent antitumor activity against lung cancer” (Frontiers in Pharmacology, 2023).

In one data set the test system is H460 cells. Briefly: CCK8 cell viability and IC50 measurement, H460. Type of data set: cell-based, Human. Conditions: H460, 25 μM, 48 h. How it is done: (§1) Human lung cancer cell line H460 and H1299, human liver normal cell line LO2 were bought from ATCC. DMEM or RPMI 1640 was used as the cell culture medium with 10% FBS and 1% penicillin/streptomycin. Cells were maintained in an incubator with 37°C humidified atmosphere and 5% CO2.
(§2) Cell viability and IC50 values were determined using the CCK8 assay kit. Cells were seeded at a density of 5 × 10^3 cells per well in a 96-well plate. After overnight adhesion, 25 μM of compounds or vehicle control DMSO which all dissolved in the culture medium were added to cells and cultured for 48 h or 72 h. CCK8 reagent, dissolved in the medium, was then added to cells and incubated for 1 h. The absorbance at 450 nm was measured using a microplate spectrophotometer (Thermo). Cell viability was calculated, with the untreated group taken as 100%. For IC50 values determination, different concentrations (0, 0.4 μM, 2 μM, 10 μM, 20 μM, 50 μM) of compounds were added to cells for 72 h. Subsequent CCK8 measurement allowed the calculation of inhibition percentage based on cell viability. The IC50 values were computed by the prism statistical software. The CCK-8 assay was conducted three times and the repetitions in each time were at least three. All the values were expressed as Mean ± SD, p < 0.05 was considered statistically significant.
(§3) In order to assess the potential cytotoxicity of the synthesized compounds, we selected two types of human non-small-cell lung cancer cell line, H460 and H1299. Cell viability and cytotoxicity were evaluated using the CCK8 assay ([Xu et al., 2018]). The cells were treated with 25 μM of compounds 5a-5s and 6a-6i for 48h and 72 h. […] In contrast, no compounds managed to reduce H1299 cell viability to less than 50%, yet compounds 5i, 5m, 6h and 6i achieved cell viability rates below 70%. […] It is worth noting that minimal effects on the cell viability of the normal cell line LO2 were observed when exposed to these compounds. Further, we determined the half-maximal inhibitory concentration (IC50) of selected compounds against H460 cells, the results of which were summarized in Table 3.
Turning to `COc1c2n(cc(C(=O)Nc3cccc(-c4cn(Cc5ccccc5C)nn4)c3)c1=O)CC1OCC(C)N1C2=O` (stereo not shown) [Compound 6c], the Cell viability was found to be 105.51%.

With `COc1c2n(cc(C(=O)Nc3cccc(-c4cn(Cc5ccc(C(F)(F)F)cc5)nn4)c3)c1=O)CC1OCC(C)N1C2=O` (stereo not shown) [Compound 6d], the Cell viability worked out at 113.95%.

Take `COc1c2n(cc(C(=O)Nc3cccc(-c4cn(Cc5ccccc5C(F)(F)F)nn4)c3)c1=O)CC1OCC(C)N1C2=O` (stereo not shown) [Compound 6e]: the Cell viability was found to be 77.85%.

Consider `COc1c2n(cc(C(=O)Nc3cccc(-c4cn(Cc5ccc(Cl)cc5)nn4)c3)c1=O)CC1OCC(C)N1C2=O` (stereo not shown) [Compound 6f], for which the Cell viability was 91.99%.

As for `COc1cccc(Cn2cc(-c3cccc(NC(=O)c4cn5c(c(OC)c4=O)C(=O)N4C(C)COC4C5)c3)nn2)c1` (stereo not shown) [Compound 6g], the Cell viability amounted to 93.36%.

Take `COc1c2n(cc(C(=O)Nc3cccc(-c4cn(Cc5cccc(F)c5)nn4)c3)c1=O)CC1OCC(C)N1C2=O` (stereo not shown) [Compound 6i]: the Cell viability turned out to be 97.90%.

Staying with this data set, now noted: H460, 25 μM, 72 h.
`COc1c2n(cc(C(=O)Nc3cccc(-c4cn(Cc5ccccc5C)nn4)c3)c1=O)CC1OCC(C)N1C2=O` (stereo not shown) [Compound 6c]: the Cell viability is on record as 101.80%.

In the case of `COc1c2n(cc(C(=O)Nc3cccc(-c4cn(Cc5ccc(C(F)(F)F)cc5)nn4)c3)c1=O)CC1OCC(C)N1C2=O` (stereo not shown) [Compound 6d], the Cell viability is 105.14%.

As to `COc1c2n(cc(C(=O)Nc3cccc(-c4cn(Cc5ccccc5C(F)(F)F)nn4)c3)c1=O)CC1OCC(C)N1C2=O` (stereo not shown) [Compound 6e], the Cell viability is 60.74%.

Take `COc1c2n(cc(C(=O)Nc3cccc(-c4cn(Cc5ccc(Cl)cc5)nn4)c3)c1=O)CC1OCC(C)N1C2=O` (stereo not shown) [Compound 6f]: the Cell viability turned out to be 94.49%.

On to `COc1cccc(Cn2cc(-c3cccc(NC(=O)c4cn5c(c(OC)c4=O)C(=O)N4C(C)COC4C5)c3)nn2)c1` (stereo not shown) [Compound 6g], for which the Cell viability is 95.01%.

For `COc1c2n(cc(C(=O)Nc3cccc(-c4cn(Cc5cccc(F)c5)nn4)c3)c1=O)CC1OCC(C)N1C2=O` (stereo not shown) [Compound 6i], the Cell viability is 95.51%.

Staying with this data set, now noted: H460, 72-h treatment.
Consider `COc1c2n(cc(C(=O)Nc3cccc(-c4cn(Cc5ccccc5Cl)nn4)c3)c1=O)CC1OCC(C)N1C2=O` (stereo not shown) [Compound 6h], for which the “cell proliferation inhibition rate” value is listed as “exceed 50%”.

The data set is the same for the next values; noted with them: H460, 72 h, CCK8.
As usually defined, the IC50 is the concentration that inhibits the measured activity by half. A high value points to weaker potency in that assay. As to `COc1c2n(cc(C(=O)Nc3cccc(-c4cn(Cc5ccccc5C(F)(F)F)nn4)c3)c1=O)CC1OCC(C)N1C2=O` (stereo not shown) [Compound 6e], the IC50 turned out to be 22.88 ± 0.13 µM.

As for `COc1c2n(cc(C(=O)Nc3cccc(-c4cn(Cc5ccccc5Cl)nn4)c3)c1=O)CC1OCC(C)N1C2=O` (stereo not shown) [Compound 6h], the midpoint of inhibition, the IC50, lay at 15.86 ± 0.09 µM.

For the next data set, the system named is H1299 cells. Briefly: CCK8 cell viability, H1299. The data set is classed as cell-based, Human. As to conditions: H1299, 25 μM, 48 h. On the procedure:
as §1, §2, §3
As for `COc1c2n(cc(C(=O)Nc3cccc(-c4cn(Cc5ccccc5C)nn4)c3)c1=O)CC1OCC(C)N1C2=O` (stereo not shown) [Compound 6c], the Cell viability is reported as 110.58%.

For the molecule `COc1c2n(cc(C(=O)Nc3cccc(-c4cn(Cc5ccc(C(F)(F)F)cc5)nn4)c3)c1=O)CC1OCC(C)N1C2=O` (stereo not shown) [Compound 6d], the Cell viability amounted to 113.99%.

As to `COc1c2n(cc(C(=O)Nc3cccc(-c4cn(Cc5ccccc5C(F)(F)F)nn4)c3)c1=O)CC1OCC(C)N1C2=O` (stereo not shown) [Compound 6e], the Cell viability is 127.00%.

Consider `COc1c2n(cc(C(=O)Nc3cccc(-c4cn(Cc5ccc(Cl)cc5)nn4)c3)c1=O)CC1OCC(C)N1C2=O` (stereo not shown) [Compound 6f], for which the Cell viability was determined as 104.20%.

Take `COc1cccc(Cn2cc(-c3cccc(NC(=O)c4cn5c(c(OC)c4=O)C(=O)N4C(C)COC4C5)c3)nn2)c1` (stereo not shown) [Compound 6g]: the Cell viability is reported as 91.06%.

`COc1c2n(cc(C(=O)Nc3cccc(-c4cn(Cc5ccccc5Cl)nn4)c3)c1=O)CC1OCC(C)N1C2=O` (stereo not shown) [Compound 6h]: the Cell viability came out at 126.87%.

With `COc1c2n(cc(C(=O)Nc3cccc(-c4cn(Cc5cccc(F)c5)nn4)c3)c1=O)CC1OCC(C)N1C2=O` (stereo not shown) [Compound 6i], the Cell viability came to 99.47%.

The same data set, now with this note: H1299, 25 μM, 72 h.
For the molecule `COc1c2n(cc(C(=O)Nc3cccc(-c4cn(Cc5ccccc5C)nn4)c3)c1=O)CC1OCC(C)N1C2=O` (stereo not shown) [Compound 6c], the Cell viability was 97.63%.

As for `COc1c2n(cc(C(=O)Nc3cccc(-c4cn(Cc5ccc(C(F)(F)F)cc5)nn4)c3)c1=O)CC1OCC(C)N1C2=O` (stereo not shown) [Compound 6d], the Cell viability is reported as 93.95%.

As to `COc1c2n(cc(C(=O)Nc3cccc(-c4cn(Cc5ccccc5C(F)(F)F)nn4)c3)c1=O)CC1OCC(C)N1C2=O` (stereo not shown) [Compound 6e], the Cell viability came out at 92.15%.

On to `COc1c2n(cc(C(=O)Nc3cccc(-c4cn(Cc5ccc(Cl)cc5)nn4)c3)c1=O)CC1OCC(C)N1C2=O` (stereo not shown) [Compound 6f], for which the Cell viability was found to be 96.47%.

For the molecule `COc1cccc(Cn2cc(-c3cccc(NC(=O)c4cn5c(c(OC)c4=O)C(=O)N4C(C)COC4C5)c3)nn2)c1` (stereo not shown) [Compound 6g], the Cell viability was determined as 94.37%.

The test system of the next data set is LO2 cells. Kind of data set: CCK8 cell viability, normal cell line LO2. The data set is classed as cell-based, Human. As to conditions: LO2 normal liver cells, 25 μM, 72 h. On the procedure: as §1, §2, §3
Regarding `COc1c2n(cc(C(=O)Nc3cccc(-c4cn(Cc5ccccc5C)nn4)c3)c1=O)CC1OCC(C)N1C2=O` (stereo not shown) [Compound 6c], the Cell viability came to 103.41%.

Turning to `COc1c2n(cc(C(=O)Nc3cccc(-c4cn(Cc5ccc(C(F)(F)F)cc5)nn4)c3)c1=O)CC1OCC(C)N1C2=O` (stereo not shown) [Compound 6d], the Cell viability amounted to 104.58%.

As for `COc1c2n(cc(C(=O)Nc3cccc(-c4cn(Cc5ccccc5C(F)(F)F)nn4)c3)c1=O)CC1OCC(C)N1C2=O` (stereo not shown) [Compound 6e], the Cell viability is 127.55%.

Take `COc1c2n(cc(C(=O)Nc3cccc(-c4cn(Cc5ccc(Cl)cc5)nn4)c3)c1=O)CC1OCC(C)N1C2=O` (stereo not shown) [Compound 6f]: the Cell viability is recorded as 130.96%.

Take `COc1cccc(Cn2cc(-c3cccc(NC(=O)c4cn5c(c(OC)c4=O)C(=O)N4C(C)COC4C5)c3)nn2)c1` (stereo not shown) [Compound 6g]: the Cell viability was 130.54%.

For `COc1c2n(cc(C(=O)Nc3cccc(-c4cn(Cc5ccccc5Cl)nn4)c3)c1=O)CC1OCC(C)N1C2=O` (stereo not shown) [Compound 6h], the Cell viability stood at 88.86%.

Consider `COc1c2n(cc(C(=O)Nc3cccc(-c4cn(Cc5cccc(F)c5)nn4)c3)c1=O)CC1OCC(C)N1C2=O` (stereo not shown) [Compound 6i], for which the Cell viability is 127.14%.
